Series [1] concerns host DNA and RNA polymerases. The series can be described thus: Reduction of cellular DNA (rDNA) or RNA (rRNA) levels in Huh7 replicon cells. The format is cell-based.
The test system of the next series is HCV replicon RNA. The series can be described thus: HCV replicon system in Huh7 cells, Q-RT-PCR of replicon RNA. The format is cell-based. On the technique in general: A replicon is a self-replicating genome or part of one, used to study replication in cells.
The test system of a further series is HCV. The series can be described thus: Antiviral activity of gemcitabine after single treatment in an HCV-infected patient. The format is in vivo, Human. The source says:
Before the second dosage the baseline viral load was 6.49 log copies/mL. […] The HCV RNA measurement eight hours after the second dosage was 4.04 log copies/mL, indicating an approximate 2.5 log drop in eight hours.

The subject of the next series is friend leukemia virus. Conditions: under conditions that allowed normal weight gain; cited from earlier work.
The conditions of series [2]: in vivo; cited from earlier work.
In series [3] the test system is HIV-1. As to conditions: PBMC; cited from earlier work.
For series [4] the following is noted: in vivo; cited from earlier work. The source holds these as a separate data set.
In series [5] the test system is HIV-1. Conditions: T-cell lines; cited from earlier work.
Series [6] deals with HIV-1. Conditions: cited from earlier work; for Impact of monotherapy: log decrease in HIV-1 RNA: for six months to one year.
A further series concerns the target T1, human DNA polymerase a (Homo sapiens, UniProt P09884).
T1 sequence (P09884 1-1462): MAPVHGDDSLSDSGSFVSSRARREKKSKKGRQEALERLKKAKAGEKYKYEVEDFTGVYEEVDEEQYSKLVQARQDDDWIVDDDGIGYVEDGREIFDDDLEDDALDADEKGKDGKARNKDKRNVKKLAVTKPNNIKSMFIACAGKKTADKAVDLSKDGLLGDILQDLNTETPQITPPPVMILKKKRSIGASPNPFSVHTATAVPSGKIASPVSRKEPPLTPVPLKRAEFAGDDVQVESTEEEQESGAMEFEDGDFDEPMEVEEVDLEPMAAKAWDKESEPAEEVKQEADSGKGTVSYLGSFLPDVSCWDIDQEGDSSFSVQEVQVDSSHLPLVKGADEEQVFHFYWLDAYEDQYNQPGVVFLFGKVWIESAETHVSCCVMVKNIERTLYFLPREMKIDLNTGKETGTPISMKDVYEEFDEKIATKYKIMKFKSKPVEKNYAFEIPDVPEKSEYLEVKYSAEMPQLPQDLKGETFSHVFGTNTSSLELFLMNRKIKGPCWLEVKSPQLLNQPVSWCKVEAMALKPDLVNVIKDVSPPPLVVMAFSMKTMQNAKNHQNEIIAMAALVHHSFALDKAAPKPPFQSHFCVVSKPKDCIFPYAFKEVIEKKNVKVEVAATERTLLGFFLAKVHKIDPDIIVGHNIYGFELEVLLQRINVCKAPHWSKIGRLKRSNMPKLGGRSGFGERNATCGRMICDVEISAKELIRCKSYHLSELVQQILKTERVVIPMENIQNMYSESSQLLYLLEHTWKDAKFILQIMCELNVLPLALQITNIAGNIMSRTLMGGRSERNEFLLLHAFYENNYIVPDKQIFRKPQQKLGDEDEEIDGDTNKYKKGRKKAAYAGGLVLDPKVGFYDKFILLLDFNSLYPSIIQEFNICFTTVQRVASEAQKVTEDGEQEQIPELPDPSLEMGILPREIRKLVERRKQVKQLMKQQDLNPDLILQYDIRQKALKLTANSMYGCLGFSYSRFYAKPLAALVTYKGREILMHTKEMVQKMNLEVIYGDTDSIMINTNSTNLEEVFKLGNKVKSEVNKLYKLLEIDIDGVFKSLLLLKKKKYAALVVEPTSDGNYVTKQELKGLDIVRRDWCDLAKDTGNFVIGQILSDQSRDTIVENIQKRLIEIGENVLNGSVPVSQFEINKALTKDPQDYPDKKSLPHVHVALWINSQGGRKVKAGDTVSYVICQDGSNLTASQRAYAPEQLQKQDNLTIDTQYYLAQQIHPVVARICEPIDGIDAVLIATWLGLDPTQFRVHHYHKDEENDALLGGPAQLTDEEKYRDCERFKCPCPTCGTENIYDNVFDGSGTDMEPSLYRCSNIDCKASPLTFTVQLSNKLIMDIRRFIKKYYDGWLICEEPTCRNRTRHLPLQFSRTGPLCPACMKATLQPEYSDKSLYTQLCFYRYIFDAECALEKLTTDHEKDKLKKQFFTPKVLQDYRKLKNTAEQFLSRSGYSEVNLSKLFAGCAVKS
As to conditions: dCTP over dFdCTP; cited from earlier work.

In a further series the target is human DNA polymerase ε (Homo sapiens, UniProt Q07864). As to conditions: dCTP over dFdCTP; cited from earlier work.
Chain of human DNA polymerase ε (Q07864 whole entry): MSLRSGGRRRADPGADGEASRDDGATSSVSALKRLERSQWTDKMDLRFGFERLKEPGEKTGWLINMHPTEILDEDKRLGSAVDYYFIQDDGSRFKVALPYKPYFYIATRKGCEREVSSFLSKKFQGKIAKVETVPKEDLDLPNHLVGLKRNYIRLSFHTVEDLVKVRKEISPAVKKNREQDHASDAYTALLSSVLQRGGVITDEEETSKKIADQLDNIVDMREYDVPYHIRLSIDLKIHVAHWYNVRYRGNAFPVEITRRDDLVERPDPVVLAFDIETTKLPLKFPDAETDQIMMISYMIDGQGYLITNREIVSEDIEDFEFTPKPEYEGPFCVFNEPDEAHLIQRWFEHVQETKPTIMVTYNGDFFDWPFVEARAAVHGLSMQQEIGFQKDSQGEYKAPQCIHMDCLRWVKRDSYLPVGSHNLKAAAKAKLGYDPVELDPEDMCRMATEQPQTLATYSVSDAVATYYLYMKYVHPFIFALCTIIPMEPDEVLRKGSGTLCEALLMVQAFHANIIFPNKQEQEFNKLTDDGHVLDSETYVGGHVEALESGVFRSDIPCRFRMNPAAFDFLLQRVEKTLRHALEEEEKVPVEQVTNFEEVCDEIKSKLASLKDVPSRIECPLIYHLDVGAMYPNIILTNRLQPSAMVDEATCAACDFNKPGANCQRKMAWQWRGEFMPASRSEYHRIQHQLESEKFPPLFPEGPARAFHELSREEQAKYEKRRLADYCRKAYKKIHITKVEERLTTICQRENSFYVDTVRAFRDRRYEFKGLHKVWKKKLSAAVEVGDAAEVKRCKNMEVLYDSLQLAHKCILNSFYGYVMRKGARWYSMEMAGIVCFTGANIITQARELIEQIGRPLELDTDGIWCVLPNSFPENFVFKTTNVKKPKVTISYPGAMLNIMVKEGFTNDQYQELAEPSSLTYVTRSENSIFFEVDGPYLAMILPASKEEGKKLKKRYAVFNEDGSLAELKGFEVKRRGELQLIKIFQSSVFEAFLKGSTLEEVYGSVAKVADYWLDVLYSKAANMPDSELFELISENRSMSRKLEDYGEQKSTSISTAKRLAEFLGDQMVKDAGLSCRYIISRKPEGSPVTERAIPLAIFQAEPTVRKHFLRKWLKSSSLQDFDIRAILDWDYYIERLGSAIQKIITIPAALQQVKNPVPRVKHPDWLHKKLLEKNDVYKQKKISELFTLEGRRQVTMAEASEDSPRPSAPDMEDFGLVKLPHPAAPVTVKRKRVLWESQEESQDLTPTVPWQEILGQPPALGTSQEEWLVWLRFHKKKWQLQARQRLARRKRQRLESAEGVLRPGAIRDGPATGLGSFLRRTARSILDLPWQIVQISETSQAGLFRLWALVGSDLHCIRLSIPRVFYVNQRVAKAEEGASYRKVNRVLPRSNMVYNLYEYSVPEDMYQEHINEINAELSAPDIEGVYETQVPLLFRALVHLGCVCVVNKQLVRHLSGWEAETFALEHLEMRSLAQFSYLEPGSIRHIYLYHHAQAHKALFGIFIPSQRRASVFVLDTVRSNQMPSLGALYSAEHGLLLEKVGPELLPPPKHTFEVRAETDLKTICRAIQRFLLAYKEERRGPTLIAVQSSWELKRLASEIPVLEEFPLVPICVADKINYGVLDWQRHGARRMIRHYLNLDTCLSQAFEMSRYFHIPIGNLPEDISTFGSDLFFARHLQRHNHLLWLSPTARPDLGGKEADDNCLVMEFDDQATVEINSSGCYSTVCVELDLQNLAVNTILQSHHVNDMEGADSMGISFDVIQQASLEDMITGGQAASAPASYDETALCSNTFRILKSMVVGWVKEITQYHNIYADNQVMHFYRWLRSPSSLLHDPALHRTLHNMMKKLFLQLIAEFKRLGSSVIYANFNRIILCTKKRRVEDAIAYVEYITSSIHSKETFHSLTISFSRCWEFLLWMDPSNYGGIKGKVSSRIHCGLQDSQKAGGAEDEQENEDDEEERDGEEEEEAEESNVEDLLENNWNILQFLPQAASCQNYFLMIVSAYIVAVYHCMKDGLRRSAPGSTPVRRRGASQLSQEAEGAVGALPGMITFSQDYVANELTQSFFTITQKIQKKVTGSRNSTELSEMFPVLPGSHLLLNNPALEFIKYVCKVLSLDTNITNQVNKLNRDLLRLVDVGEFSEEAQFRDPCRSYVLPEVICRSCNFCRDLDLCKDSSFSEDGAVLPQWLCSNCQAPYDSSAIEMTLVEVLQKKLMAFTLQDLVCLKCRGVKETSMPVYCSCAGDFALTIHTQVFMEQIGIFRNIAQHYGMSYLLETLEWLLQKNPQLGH
For series [7] the following is noted: cited from earlier work.
Series [8] concerns locally advanced or metastatic pancreatic cancer. As to conditions: 1000 mg/m^2 by 30 min infusion once weekly; 63 patients per arm; cited from earlier work.
The subject of the next series is pancreatic cancer. As to conditions: 63 patients previously treated with 5-FU; cited from earlier work.
The conditions of series [9]: human, in vivo; cited from earlier work.
The next series addresses cytidine deaminase (Homo sapiens, UniProt P32320). As to conditions: intracellular cytidine deaminase; cited from earlier work.
The conditions of series [10]: human, in vivo; cited from earlier work. The source holds these as a separate data set.
For series [11], the target named is deoxycytidine kinase (dCK) (Cricetulus griseus, UniProt G3I4C0). As to conditions: phosphorylation to the monophosphate; partially purified enzyme from CHO cells; cited from earlier work.
Chain of deoxycytidine kinase (dCK) (G3I4C0 entry or part of it): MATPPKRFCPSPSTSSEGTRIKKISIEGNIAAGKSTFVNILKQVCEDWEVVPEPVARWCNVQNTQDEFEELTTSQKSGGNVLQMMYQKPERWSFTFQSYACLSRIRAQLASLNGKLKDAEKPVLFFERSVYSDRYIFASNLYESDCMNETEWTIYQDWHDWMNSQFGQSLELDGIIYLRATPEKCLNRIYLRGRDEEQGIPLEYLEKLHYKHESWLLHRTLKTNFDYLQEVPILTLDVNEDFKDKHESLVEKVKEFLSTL
For series [12], the system named is locally advanced or metastatic NSCLC. Conditions: 28-day cycle, cited from earlier work; for objective response rate: first-line NSCLC.
For series [13], the system named is stage IIIB or Stage 1V NSCLC. Conditions: 21-day cycle, cited from earlier work.
For series [14] the following is noted: in vivo; cited from earlier work. The source holds these as a separate data set.

Structures can show the parent of a compound that is named as a salt. Where two headings read alike, the source gives them in different places.

As usually defined, the EC50 is the concentration at which the effect is half-maximal. Broadly, the half-life is how long it takes for the measured level to halve. Broadly, the IC50 is the midpoint of a concentration-inhibition curve. As usually defined, the Km is the substrate concentration at which the rate is half of its maximum. A word on the EC90: it is the concentration at which the effect reaches the 90% level.

Chain of cytidine deaminase (P32320 whole entry): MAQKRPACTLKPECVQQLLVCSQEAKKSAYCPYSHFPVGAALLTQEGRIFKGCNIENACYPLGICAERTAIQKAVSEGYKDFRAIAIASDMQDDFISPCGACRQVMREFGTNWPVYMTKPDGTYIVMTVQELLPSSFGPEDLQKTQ

Consider `O=c1ccn([C@@H]2O[C@H](CO)[C@@H](O)C2(F)F)c(=O)[nH]1` [dFdU, 2′,2′-difluorodeoxyuridine], for which the “dCt rRNA” value in series [1] (7.0 μM) came out at 1.96. Moreover, the “dCT HCV” value in the series on HCV replicon RNA (7.0 μM) was determined as 6.39. In the series with HCV replicon RNA (7.0 μM, HCV dCt minus rRNA dCt), this compound had a ddct of 4.42.
As to `Nc1ccn([C@@H]2O[C@H](CO)[C@@H](O)C2(F)F)c(=O)n1` [gemcitabine HCl], the tolerance entry in the series on HCV (1200 mg in 1000 minutes associated with oxaliplatine) is reported as “acceptable”.
As for `Nc1ccn([C@@H]2O[C@H](CO)[C@@H](O)C2(F)F)c(=O)n1` [cytidine analog], in the series on friend leukemia virus, the inhibition of polyerythroblastosis is 90% and the “inhibition of spleen enlargement” value is 90%.
On to `Cc1cn([C@H]2C=C[C@@H](CO)O2)c(=O)[nH]c1=O` [Stavudine, 3′-deoxy-2′,3′-didehycrothymidine], for which the Adverse events result in [2] is reported as “Peripheral neuropathy”. The EC50 in the series with HIV-1 [3] was 9 nM; with HIV-1 [5], 1 to 25000 nM. Moreover, the “Parent drug plasma-serum half-life” value in series [4] was 1.0 to 1.6 h. Moreover, the “Impact of monotherapy: log decrease in HIV-1 RNA” value in the series on HIV-1 [6] was “˜0.8 log decrease in HIV-1 RNA for six months to one year”.
For Abacavir, in series [2], the Adverse events result was “Nausea, vomiting, headache, (hypersensi- tivity reaction)”. Further, the “Parent drug plasma-serum half-life” value in series [4] was 1.0 to 2.0 h. Besides, the concentration giving a half-maximal response (EC50) in the series on HIV-1 [5] is 4100 nM. The “Impact of monotherapy: log reduction in HIV-1 RNA” value in the series with HIV-1 [6] (at four weeks) is on record as “Approximate 1.8 log reduction in HIV-1 RNA at four weeks”.
On to `Nc1ccn([C@@H]2O[C@H](COP(=O)(O)OP(=O)(O)OP(=O)(O)O)[C@@H](O)C2(F)F)c(=O)n1` [dFdCTP], for which the “preference of the polymerase for the normal nucleotide (dCTP)” value on human DNA polymerase a and at human DNA polymerase ε was 20 fold throughout.
As to `Nc1ccn([C@@H]2O[C@H](CO)[C@@H](O)C2(F)F)c(=O)n1` [Gemcitabine, β-D-2′,2′-difluorocytidine], the half-life in series [7] (after short infusion (<70 min)) is 0.533 to 1.53 h. Moreover, the Volume of distribution in series [7] (human, in vivo) is given as 370 L/m^2. For the same compound, in the series on HCV (before the second dosage, day after first 1200 mg dose), the baseline viral load is recorded as 6.49 log copies/mL. For the same compound, the “HCV RNA measurement” value in the series on HCV (eight hours after the second dosage (approximately 700 mg)) was 4.04 log copies/mL. For the same compound, the “drop in HCV RNA” value in the series with HCV (in eight hours after the second dosage) is roughly 2.5 log. Moreover, the IC50 in series [1] (Homo sapiens, Huh-7) came out at 240 nM. In series [8], the “clinical benefit response, survival, and time to disease progression compared to 5-FU” value is on record as “statistically significant increases”. In the series with pancreatic cancer, the “clinical benefit response rate” value was 27% and the median survival is on record as 3.9 months. Also, the plasma protein binding entry in series [9] is given as “negligible”. On cytidine deaminase, the Km was 96 µM. Moreover, in [10], the “ADVERSE EFFECTS” value was “Thrombocytopenia,” and the dose-limiting toxicity result is reported as “myelosuppression”. The Km in [11] is 3.6 µM. Further, the “reduction of the replicon HCV RNA (FIG. 2)” value with HCV replicon RNA (4-days incubation) was “dose-dependant reduction”. Also, the EC90 in the series on HCV replicon RNA (Hepatitis C virus, Huh-7, 96 h, Huh7 cells, 4-days incubation, read-out: EC90 (1-log reduction of replicon RNA) (converted)) is roughly 70 nM. The EC50 with HCV replicon RNA (Hepatitis C virus, Huh-7, Huh7 cells harboring self-replicating HCV RNA, read-out: EC50, reduction of HCV RNA levels) came to 40 nM.
Regarding `Nc1nc(=O)n([C@@H]2CS[C@H](CO)O2)cc1F` [Emtricitabine], in series [2], the Adverse events result is on record as “Anemia”. The EC50 in the series on HIV-1 [3] is 0.7 to 10 nM; in the series on HIV-1 [5], 9 to 500 nM. Also, the “Parent drug plasma-serum half-life” value in series [4] was 1.0 to 4.0 h. Moreover, in the series on HIV-1 [6] (at 14 days), the “Impact of monotherapy: log reduction” value was “˜2 log reduction at 14 days”.
For `N.N.[Cl][Pt][Cl]` [cisplatin], the objective response rate in [12] is given as 10%.
For `Cc1cn([C@H]2CC(N=[N+]=[N-])[C@@H](CO)O2)c(=O)[nH]c1=O` (stereo partly shown) [Zidovudine, 1-(3′Azido-2′-deoxyribosyl)thymine], in series [2], the Adverse events result is recorded as “Nausea, vomiting, headache, neutropenia, anemia, insomnia”. Also, the EC50 was 4 to 25 nM with HIV-1 [3] and 5 to 6 nM in the series with HIV-1 [5]. The “Parent drug plasma-serum half-life” value in [4] is 0.8 to 1.9 h. In addition, the “Impact of monotherapy: log decrease in HIV-1 RNA” value in the series on HIV-1 [6] is recorded as “One log decrease in HIV-1 RNA for six months to one year 1”.
gemcitabine plus cisplatin: in series [12], the objective response rate is reported as 26%; the “Median survival time and median time to disease progression compared to cisplatin alone” value is given as “significantly greater”. In addition, the “median time to disease progression and objective response rates compared to etoposide plus cisplatin” value in series [13] is reported as “significantly greater”. Also, the “survival, difference between the two treatment arms” value in [13] (vs etoposide plus cisplatin) is “no significant difference”.
For `O=c1[nH]cnc2c1ncn2[C@H]1CC[C@@H](CO)O1` [Didanosine, 2′,3′-dideoxyinosine], the Adverse events result in series [2] is “Diarrhea, nausea, vomiting, peripheral neuropathy, pancreatitis”. In addition, the EC50 is 10 nM in the series on HIV-1 [3] and 2 to 20 nM with HIV-1 [5]. For the same compound, the “Parent drug plasma-serum half-life” value in series [4] is 0.6 to 2.7 h. Besides, in the series on HIV-1 [6], the “Impact of monotherapy: log decrease in HIV-1 RNA” value is on record as “˜0.8 log decrease in HIV-1 RNA for six months to one year”.
On to `NC(=O)c1ncn([C@@H]2O[C@H](CO)[C@@H](O)[C@H]2O)n1` [Ribavirin], for which the teratogenicity entry in series [14] is recorded as “teratogenic”.
With `Nc1ccn([C@H]2CC[C@@H](CO)O2)c(=O)n1` [Zalcitabine, 2′,3′-dideoxycytidine], the Adverse events entry in [2] is “Peripheral neuropathy, mouth ulcers”. Also, the EC50 in the series with HIV-1 [3] was 2 to 160 nM; in the series with HIV-1 [5], 30 to 50 nM. The “Parent drug plasma-serum half-life” value in series [4] was 1.0 to 3.0 h. Further, in the series with HIV-1 [6] (in vivo), the “Impact of monotherapy (comparison in words)” value is “Less effective than either ddI or AZT”.
Consider `Nc1ccn([C@H]2C[C@H](O)[C@@H](CO)O2)c(=O)n1` [deoxycytidine], for which, in [11], the Km is 1.6 µM.

(Values after US20030225029A1 (priority 2002, published 2003).)
